What all share (test): NCI tumour cell line growth inhibition, 48 h
The subject of assay [1] is 786-0 renal.
The test system of assay [2] is BT-549 breast.
The test system of assay [3] is CAKI-1 renal.
In assay [4] the test system is CCRF-CEM leukemia.
In assay [5] the test system is DU-145 prostate.
Assay [6] relates to HOP-92 NSCLC.
For assay [7], the system named is MDA-MB-435.
Assay [8] deals with SK-MEL-28 melanoma.
Assay [9] has as its system SR leukemia.
Assay [10] concerns SW-620 colon.

Molecules are shown by their SMILES.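 The compound was tested at five concentrations on cells cultured in 96-well plates, with a 48-hour exposure period. Abbreviation: GI50, concentration required for 50% inhibition of growth. TGI denotes the concentration required for complete inhibition of growth.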 Bounds are passed on as bounds.

Consider `O=[N+]([O-])c1cc2no[n+]([O-])c2cc1N1CCCCC1`, for which the TGI in assay [1] was 2.62 µM; in [2], 45.2 µM; in assay [3] it was 12.5 µM; in [4] it was above 100 µM; in assay [5], 6.18 µM; in assay [6], 7.04 µM. Besides, the TGI in assay [7] was 9.44 µM; in assay [8] it was 32.9 µM; in [9] it was 12.2 µM; in assay [10], above 100 µM.

Turning to `COc1cnc2c(c1)C(=O)c1c-2n(CCCN2CCC(O)CC2)c(=O)c2cc(Cl)ccc12`, the GI50 in [1] is 0.28 µM; in assay [2] it was 9.9 µM; in [3], 0.0729 µM; in assay [4] it was 0.066 µM; in assay [5], 0.279 µM; in [6], 15.5 µM. The GI50 was 12.9 µM in [7], 16.7 µM in [8], 0.0888 µM in [9] and 0.253 µM in [10]. Also, the TGI was 1.36 µM in assay [1]; 25.9 µM in assay [2]; 15.1 µM in assay [3]; above 100 µM in assay [4]; 1.71 µM in assay [5]; 34.8 µM in assay [6]. Moreover, the TGI in [7] is 25.7 µM; in assay [8], 35.7 µM; in assay [9] it was 13.2 µM; in assay [10] it was 2.62 µM.

With `NC1(Cc2ccc(Cl)cc2)CCN(c2ncnc3[nH]ccc23)CC1`, the GI50 in [1] is 2.68 µM; in [2] it was 3.45 µM; in [3], 3.94 µM; in assay [4], 3.05 µM; in assay [5], 9.37 µM; in assay [6], 1.09 µM. For the same molecule, the GI50 in [7] is 4.67 µM; in assay [8] it was 6.63 µM; in assay [9], 4.2 µM; in assay [10] it was 4.59 µM. The TGI in assay [1] turned out to be 17 µM; in [2], 16.3 µM; in [3], 19.3 µM; in [4], 24 µM; in [5], 25.1 µM; in [6] it was 7.06 µM. In addition, the TGI amounted to 18.1 µM in assay [7], 19.8 µM in assay [8], 31.4 µM in assay [9] and 20.4 µM in assay [10].

For `COc1ccc(-c2c3c(nc4n[nH]c(-c5ccc(Cl)cc5)c24)-c2ccccc2C(=O)C3=O)cc1`, the GI50 in assay [1] is 2.01 µM; in assay [2], 1.41 µM; in assay [3], 1.62 µM; in assay [4], 2.55 µM; in [5] it was 1.59 µM; in [6], 1.18 µM. Moreover, the GI50 in assay [7] was 1.54 µM; in assay [8] it was 1.84 µM; in assay [9], 2.57 µM; in assay [10] it was 1.6 µM. For the same molecule, the TGI was 4.59 µM in assay [1]; 2.89 µM in [2]; 4.38 µM in assay [3]; above 100 µM in assay [4]; 2.96 µM in [5]; 3.17 µM in assay [6]. For the same molecule, the TGI in [7] is 3.43 µM; in [8] it was 3.9 µM; in assay [9] it was above 100 µM; in [10] it was 3.03 µM.

For `CC(=O)OC1=CC2(OC(C)=O)CC(C)(C)C1C1C(=O)C=CC(=O)C12` (stereo not given), the TGI in assay [1] was above 81.7 µM; in assay [2] it was 32.3 µM; in assay [3] it was above 100 µM; in [4] it was above 100 µM; in assay [5] it was above 100 µM; in assay [6], above 100 µM. Further, the TGI in assay [7] was 53.4 µM; in assay [8], above 100 µM; in assay [9] it was above 100 µM; in assay [10], above 100 µM.

As for `CC1=Nc2c([nH]c(=S)[nH]c2=O)NC(c2c(Cl)cccc2Cl)C1` (stereo not given), the TGI in [1] came out at 1.76 µM; in [2] it was 2.64 µM; in assay [3], 14.8 µM; in [4] it was 2.18 µM; in assay [5], 3.51 µM; in assay [6], 17.2 µM. In addition, the TGI turned out to be 2.88 µM in [7], 6.26 µM in assay [8], 1.68 µM in [9] and 2.05 µM in assay [10].

In the case of `CCOc1ccc2c(c1)c(CC(=O)O)cn2C`, the TGI in assay [1], in [2], in assay [3], in assay [4], in assay [5] and in assay [6] was above 100 µM each time. For the same molecule, the TGI in assay [7], in assay [8] and in [9] was above 100 µM throughout.

Turning to `CN(CCC(=O)/C(=C\c1ccccc1)c1ccc(Cl)cc1)Cc1ccccc1`, the GI50 is 2.03 µM in [1]; 2.94 µM in assay [2]; 3.54 µM in assay [3]; 1.44 µM in [4]; 2.35 µM in assay [5]; 2.55 µM in [6]. Besides, the GI50 is 1.83 µM in assay [7], 0.521 µM in assay [9] and 2.63 µM in assay [10]. Moreover, the TGI in assay [1] was found to be 4.1 µM; in [2], 8.76 µM; in assay [3], 12.5 µM; in assay [4], 6.91 µM; in assay [5] it was 6.78 µM; in [6], 6.16 µM. In addition, the TGI worked out at 4.07 µM in [7], 5.81 µM in [9] and 7.74 µM in [10].

Turning to `COCCOCCOCc1n(Cc2ccc3ccccc3n2)c2ccccc2[n+]1Cc1ccc2ccccc2n1`, the GI50 was 3.74 µM in assay [1]; 0.369 µM in assay [2]; 1.78 µM in assay [4]; 2.67 µM in [5]; 0.217 µM in [6]; 0.387 µM in assay [7]. In addition, the GI50 was 0.759 µM in assay [8], 0.663 µM in assay [9] and 2.03 µM in [10]. Further, the TGI in [1] is 15.5 µM; in assay [2] it was 4.42 µM; in assay [4], 16 µM; in assay [5], 41.8 µM; in [6], 2.74 µM; in assay [7], 10.8 µM. Moreover, the values for the TGI in [8], in [9] and in assay [10] were 14.5 µM, 11.8 µM and 17.2 µM, respectively.

Source of the values: PubChem BioAssay (NCI).
